Species on record: Rattus norvegicus
Test: DrugMatrix - Regimen: Daily Repeat
Format: toxicity, organism-based, Sprague-Dawley
Parameters: regimen Daily Repeat, gender Male, age 6-8 weeks
Details: in vivo, po, route oral GAVAGE, vehicle 100 % SALINE; for ABSOLUTE BASOPHIL / ABSOLUTE EOSINOPHIL / ABSOLUTE LYMPHOCYTE / ABSOLUTE MONOCYTE / ABSOLUTE SEGMENTED NEUTROPHIL / BASOPHIL / EOSINOPHIL / ERYTHROCYTE COUNT / HEMATOCRIT / HEMOGLOBIN / LEUKOCYTE COUNT / LYMPHOCYTE / MEAN CORPUSCULAR HEMOGLOBIN / MEAN CORPUSCULAR HEMOGLOBIN CONCENTRATION / MEAN CORPUSCULAR VOLUME / MONOCYTE / NEUTROPHIL / NUCLEATED RED BLOOD CELLS / PLATELET COUNT: tissue Blood; for ALANINE AMINOTRANSFERASE / ALBUMIN / ALKALINE PHOSPHATASE / ASPARTATE AMINOTRANSFERASE / BLOOD UREA NITROGEN / CARBON DIOXIDE / CHLORIDE / CHOLESTEROL / CREATINE PHOSPHOKINASE / CREATININE / GLUCOSE / LACTATE DEHYDROGENASE / LIPASE / PHOSPHORUS / POTASSIUM / SODIUM / TOTAL BILIRUBIN / TOTAL PROTEIN / URIC ACID: tissue Plasma
[1] = 0 mg/kg, 72 h, dose level Control, time 3 day
[2] = 0 mg/kg, […], dose level Control, time 7 day
[3] = 3000 mg/kg, 72 h, dose level Low, time 3 day

CCO [ALCOHOL]
ABSOLUTE BASOPHIL [1]: 0 CELLS/uL
ABSOLUTE EOSINOPHIL [1]: 66 CELLS/uL
ABSOLUTE LYMPHOCYTE [1]: 11922.83 CELLS/uL
ABSOLUTE MONOCYTE [1]: 401.5 CELLS/uL
ABSOLUTE SEGMENTED NEUTROPHIL [1]: 1526.33 CELLS/uL
BASOPHIL [1]: 0%
EOSINOPHIL [1]: 0.5%
ERYTHROCYTE COUNT [1]: 5.62 x10E6/uL
HEMATOCRIT [1]: 37.17%
HEMOGLOBIN [1]: 13.53 G/DL
LEUKOCYTE COUNT [1]: 13.92 x10E3/uL
LYMPHOCYTE [1]: 86.17%
MEAN CORPUSCULAR HEMOGLOBIN [1]: 24.07 pg
MEAN CORPUSCULAR HEMOGLOBIN CONCENTRATION [1]: 36.42 G/DL
MEAN CORPUSCULAR VOLUME [1]: 66.1 fL
MONOCYTE [1]: 3%
NEUTROPHIL [1]: 10.33%
NUCLEATED RED BLOOD CELLS [1]: 0 /100WBC
PLATELET COUNT [1]: 1107 x10E3/uL
ALANINE AMINOTRANSFERASE [1]: 45.33 u/L
ALBUMIN [1]: 4.3 G/DL
ALKALINE PHOSPHATASE [1]: 321.33 u/L
ASPARTATE AMINOTRANSFERASE [1]: 77.33 u/L
BLOOD UREA NITROGEN [1]: 14.33 mg/dL
CARBON DIOXIDE [1]: 32.33 mmol/L
CHLORIDE [1]: 99.67 MEQ/L
CHOLESTEROL [1]: 82.33 mg/dL
CREATINE PHOSPHOKINASE [1]: 205.5 u/L
CREATININE [1]: 0.19 mg/dL
GLUCOSE [1]: 150.83 mg/dL
LACTATE DEHYDROGENASE [1]: 88.17 u/L
LIPASE [1]: 10.83 u/L
PHOSPHORUS [1]: 10.9 mg/dL
POTASSIUM [1]: 5.83 MEQ/L
SODIUM [1]: 145.15 MEQ/L
TOTAL BILIRUBIN [1]: 0.12 mg/dL
TOTAL PROTEIN [1]: 6.22 G/DL
URIC ACID [1]: 1 mg/dL
ABSOLUTE BASOPHIL [2]: 0 CELLS/uL
ABSOLUTE EOSINOPHIL [2]: 22 CELLS/uL
ABSOLUTE LYMPHOCYTE [2]: 11105.17 CELLS/uL
ABSOLUTE MONOCYTE [2]: 258.17 CELLS/uL
ABSOLUTE SEGMENTED NEUTROPHIL [2]: 881.33 CELLS/uL
BASOPHIL [2]: 0%
EOSINOPHIL [2]: 0.17%
ERYTHROCYTE COUNT [2]: 5.29 x10E6/uL
HEMATOCRIT [2]: 34.03%
HEMOGLOBIN [2]: 13.67 G/DL
LEUKOCYTE COUNT [2]: 12.27 x10E3/uL
LYMPHOCYTE [2]: 90.83%
MEAN CORPUSCULAR HEMOGLOBIN [2]: 25.9 pg
MEAN CORPUSCULAR HEMOGLOBIN CONCENTRATION [2]: 40.18 G/DL
MEAN CORPUSCULAR VOLUME [2]: 64.42 fL
MONOCYTE [2]: 2.17%
NEUTROPHIL [2]: 6.83%
NUCLEATED RED BLOOD CELLS [2]: 0 /100WBC
PLATELET COUNT [2]: 1159.83 x10E3/uL
ALANINE AMINOTRANSFERASE [2]: 45.83 u/L
ALBUMIN [2]: 4.1 G/DL
ALKALINE PHOSPHATASE [2]: 240 u/L
ASPARTATE AMINOTRANSFERASE [2]: 88.67 u/L
BLOOD UREA NITROGEN [2]: 13.67 mg/dL
CARBON DIOXIDE [2]: 31.83 mmol/L
CHLORIDE [2]: 96.83 MEQ/L
CHOLESTEROL [2]: 71.17 mg/dL
CREATINE PHOSPHOKINASE [2]: 202.5 u/L
CREATININE [2]: 0.22 mg/dL
GLUCOSE [2]: 132.67 mg/dL
LACTATE DEHYDROGENASE [2]: 107.17 u/L
LIPASE [2]: 10.5 u/L
PHOSPHORUS [2]: 10.47 mg/dL
POTASSIUM [2]: 6.23 MEQ/L
SODIUM [2]: 140.73 MEQ/L
TOTAL BILIRUBIN [2]: 0.12 mg/dL
TOTAL PROTEIN [2]: 6.18 G/DL
URIC ACID [2]: 0.87 mg/dL
ABSOLUTE BASOPHIL [3]: 0 CELLS/uL
ABSOLUTE EOSINOPHIL [3]: 0 CELLS/uL
ABSOLUTE LYMPHOCYTE [3]: 9478 CELLS/uL
ABSOLUTE MONOCYTE [3]: 154.17 CELLS/uL
ABSOLUTE SEGMENTED NEUTROPHIL [3]: 701.17 CELLS/uL
BASOPHIL [3]: 0%
EOSINOPHIL [3]: 0%
ERYTHROCYTE COUNT [3]: 5.61 x10E6/uL
HEMATOCRIT [3]: 37.43%
HEMOGLOBIN [3]: 13.38 G/DL
LEUKOCYTE COUNT [3]: 10.33 x10E3/uL
LYMPHOCYTE [3]: 91.5%
MEAN CORPUSCULAR HEMOGLOBIN [3]: 23.87 pg
MEAN CORPUSCULAR HEMOGLOBIN CONCENTRATION [3]: 35.78 G/DL
MEAN CORPUSCULAR VOLUME [3]: 66.65 fL
MONOCYTE [3]: 1.5%
NEUTROPHIL [3]: 7%
NUCLEATED RED BLOOD CELLS [3]: 0 /100WBC
PLATELET COUNT [3]: 1014.67 x10E3/uL
ALANINE AMINOTRANSFERASE [3]: 55.33 u/L
ALBUMIN [3]: 4.22 G/DL
ALKALINE PHOSPHATASE [3]: 351.5 u/L
ASPARTATE AMINOTRANSFERASE [3]: 80.33 u/L
BLOOD UREA NITROGEN [3]: 10.17 mg/dL
CARBON DIOXIDE [3]: 30.17 mmol/L
CHLORIDE [3]: 99.8 MEQ/L
CHOLESTEROL [3]: 73.17 mg/dL
CREATINE PHOSPHOKINASE [3]: 216.33 u/L
CREATININE [3]: 0.24 mg/dL
GLUCOSE [3]: 152.67 mg/dL
LACTATE DEHYDROGENASE [3]: 102.83 u/L
LIPASE [3]: 8.17 u/L
PHOSPHORUS [3]: 10.45 mg/dL
POTASSIUM [3]: 5.55 MEQ/L
SODIUM [3]: 144.46 MEQ/L
TOTAL BILIRUBIN [3]: 0.1 mg/dL
TOTAL PROTEIN [3]: 6.13 G/DL
URIC ACID [3]: 0.87 mg/dL
